From ChEMBL document CHEMBL4613266, “Discovery and Structure Relationships of Salicylanilide Derivatives as Potent, Non-acidic P2X1 Receptor Antagonists” (J Med Chem, 2020) come the findings set out here.

Some results are limits rather than exact numbers.

What all share (format): cell-based
Test [1] deals with P2X purinoceptor 1 (Homo sapiens, UniProt P51575). The test can be described thus: Antagonist activity at non-desensitizing human P2X1 receptor ( P2X2/P2X1 chimera) expressed in human 1321N1 cells assessed as inhibition of ATP-induced calcium influx pre-incubated for 30 mins before ATP stimulation by FLIPR assay relative to control.
Test [2] addresses T1, P2X purinoceptor 2 (Homo sapiens, UniProt Q9UBL9).
T1 sequence (Q9UBL9 whole entry): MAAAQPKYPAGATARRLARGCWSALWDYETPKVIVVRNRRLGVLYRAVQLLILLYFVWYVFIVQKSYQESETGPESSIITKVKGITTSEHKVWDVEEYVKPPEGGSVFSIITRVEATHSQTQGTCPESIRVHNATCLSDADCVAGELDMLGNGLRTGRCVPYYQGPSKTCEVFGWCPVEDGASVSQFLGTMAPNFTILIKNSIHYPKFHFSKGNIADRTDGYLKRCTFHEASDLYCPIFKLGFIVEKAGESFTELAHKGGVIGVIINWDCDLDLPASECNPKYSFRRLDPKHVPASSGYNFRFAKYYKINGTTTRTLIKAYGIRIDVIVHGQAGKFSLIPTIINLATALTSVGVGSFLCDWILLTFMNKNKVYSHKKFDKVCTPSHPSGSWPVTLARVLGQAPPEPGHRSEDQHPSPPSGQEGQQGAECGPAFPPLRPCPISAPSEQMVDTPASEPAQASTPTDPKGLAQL
Kind of test: Antagonist activity at human P2X2 receptor expressed in human 1321N1 cells assessed as inhibition of ATP-induced cytosolic calcium influx preincubated for 30 mins followed by ATP addition by Fluo-4 AM dye-based fluorescence assay.

In test [3] the target is T2, P2X purinoceptor 4 (Homo sapiens, UniProt Q99571).
T2 sequence (Q99571 whole entry): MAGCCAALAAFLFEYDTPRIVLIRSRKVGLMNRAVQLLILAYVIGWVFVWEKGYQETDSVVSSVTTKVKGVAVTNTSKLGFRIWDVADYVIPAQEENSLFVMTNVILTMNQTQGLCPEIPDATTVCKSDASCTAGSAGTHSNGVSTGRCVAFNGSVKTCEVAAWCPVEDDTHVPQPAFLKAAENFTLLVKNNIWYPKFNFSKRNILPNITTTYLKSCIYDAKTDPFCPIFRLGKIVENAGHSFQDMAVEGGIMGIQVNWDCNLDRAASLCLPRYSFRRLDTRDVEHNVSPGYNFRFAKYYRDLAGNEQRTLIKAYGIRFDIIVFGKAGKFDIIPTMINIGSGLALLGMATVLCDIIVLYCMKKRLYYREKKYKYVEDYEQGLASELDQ
Kind of test: Antagonist activity at human P2X4 receptor expressed in human 1321N1 cells assessed as inhibition of ATP-induced cytosolic calcium influx preincubated for 30 mins followed by ATP addition by Fluo-4 AM dye-based fluorescence assay.

Test [4] addresses T3, P2X purinoceptor 7 (Homo sapiens, UniProt Q99572).
T3 sequence (Q99572 whole entry): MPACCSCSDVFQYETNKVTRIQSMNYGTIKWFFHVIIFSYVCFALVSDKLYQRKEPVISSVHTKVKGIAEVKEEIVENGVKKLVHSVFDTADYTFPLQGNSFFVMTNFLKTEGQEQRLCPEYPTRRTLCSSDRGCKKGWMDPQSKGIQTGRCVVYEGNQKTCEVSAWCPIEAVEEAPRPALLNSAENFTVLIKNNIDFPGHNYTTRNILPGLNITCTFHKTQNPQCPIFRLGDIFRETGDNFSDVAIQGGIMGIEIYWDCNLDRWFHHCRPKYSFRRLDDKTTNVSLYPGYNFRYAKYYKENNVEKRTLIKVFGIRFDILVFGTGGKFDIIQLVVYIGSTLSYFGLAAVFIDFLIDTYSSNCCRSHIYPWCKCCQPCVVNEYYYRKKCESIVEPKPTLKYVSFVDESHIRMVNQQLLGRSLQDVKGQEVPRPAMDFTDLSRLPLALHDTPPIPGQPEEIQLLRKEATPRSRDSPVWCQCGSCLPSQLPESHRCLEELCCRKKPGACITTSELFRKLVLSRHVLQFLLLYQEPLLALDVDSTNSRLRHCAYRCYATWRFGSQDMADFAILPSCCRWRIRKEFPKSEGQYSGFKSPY
The test can be described thus: Antagonist activity at human P2X7 receptor expressed in human 1321N1 cells assessed as inhibition of ATP-induced cytosolic calcium influx preincubated for 30 mins followed by ATP addition by Fluo-4 AM dye-based fluorescence assay.

Test [5] has as its target T4, P2X purinoceptor 1 (Homo sapiens) (UniProt P51575).
T4 sequence (whole entry): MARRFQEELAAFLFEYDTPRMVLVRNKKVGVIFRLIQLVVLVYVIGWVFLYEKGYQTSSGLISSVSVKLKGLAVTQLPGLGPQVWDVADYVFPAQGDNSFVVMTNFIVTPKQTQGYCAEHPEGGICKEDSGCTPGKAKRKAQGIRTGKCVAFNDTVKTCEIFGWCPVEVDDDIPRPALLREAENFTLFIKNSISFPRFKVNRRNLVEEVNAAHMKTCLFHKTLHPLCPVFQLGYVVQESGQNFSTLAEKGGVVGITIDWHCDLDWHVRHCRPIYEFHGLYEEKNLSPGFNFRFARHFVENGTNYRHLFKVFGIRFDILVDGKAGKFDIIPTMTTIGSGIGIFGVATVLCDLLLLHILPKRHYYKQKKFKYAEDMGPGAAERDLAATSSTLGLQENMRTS
Kind of test: Antagonist activity at non-desensitizing human P2X1 receptor ( P2X2/P2X1 chimera) expressed in human 1321N1 cells assessed as inhibition of ATP-induced calcium influx at 10 uM pre-incubated for 30 mins before ATP stimulation by FLIPR assay relative to control.

Broadly, the IC50 is the concentration that gives 50% inhibition. In the case of `O=C(Nc1cc(C(F)(F)F)cc(C(F)(F)F)c1)c1ccc2ccccc2c1O`, the IC50 in test [1] is 341 nM; in test [2], above 10000 nM; in test [3], 729 nM; in test [4], 797 nM.

Usually inhibition stands for the relative decrease from the control value, in per cent. Turning to `O=C(Nc1cc([N+](=O)[O-])cc([N+](=O)[O-])c1)c1cc(Cl)ccc1O`, the inhibition in test [5] was 62%. In addition, in test [1], the IC50 was determined as 4350 nM.

In the case of `O=C(CNc1cc(C(F)(F)F)cc(C(F)(F)F)c1)c1cc(Cl)ccc1O`, the inhibition in test [5] is 104%. The IC50 in test [1] is 1790 nM.

On to `O=C(Nc1cc(C(F)(F)F)cc(C(F)(F)F)c1)c1cnccc1O`, for which the inhibition in test [5] was found to be 31%. Also, in test [1], the IC50 was above 10000 nM.

`O=C(Nc1cccnc1)c1ccccc1O`: the inhibition in test [5] came to 3%. Also, the IC50 in test [1] was above 10000 nM.

As for `CN(C(=O)c1cc(Cl)ccc1O)c1cc(C(F)(F)F)cc(C(F)(F)F)c1`, the inhibition in test [5] was determined as 88%. The IC50 in test [1] stood at 4060 nM.

For the compound `O=C(Nc1cc(Cl)ccc1O)c1cc(C(F)(F)F)cc(C(F)(F)F)c1`, the inhibition in test [5] was determined as 48%. Besides, the IC50 in test [1] was at least 10000 nM.

On to `O=C(Nc1cc(C(F)(F)F)cc(C(F)(F)F)c1)c1cc(F)ccc1O`, for which, in test [5], the inhibition stood at 96%. In addition, the IC50 in test [1] was 1660 nM.

Turning to `O=C(Nc1ccc2cc[nH]c2c1)c1ccccc1O`, the inhibition in test [5] stood at 11%. In test [1], the IC50 is above 10000 nM.

Turning to `O=C(Nc1cc(C(F)(F)F)cc(C(F)(F)F)c1)c1cc(O)ccc1O`, the inhibition in test [5] was 109%. Also, in test [1], the IC50 is 3410 nM.

On to `O=C(Nc1cc(O)cc(O)c1)c1cc(Cl)ccc1O`, for which, in test [5], the inhibition came to 4%. The IC50 in test [1] was above 10000 nM.

For `Cc1cc(C)cc(NC(=O)c2cc(Cl)ccc2O)c1`, the inhibition in test [5] came out at 64%. In test [1], the IC50 came to 323 nM.

For `O=C(Nc1cc(C(F)(F)F)cc(C(F)(F)F)c1)c1cccnc1O`, in test [5], the inhibition came to 9%. The IC50 in test [1] was above 10000 nM.

As to `O=C(Nc1cccc(C(F)(F)F)c1)c1ccccc1O` [SALFLUVERINE], in test [5], the inhibition was found to be 75%. The IC50 in test [1] came out at 1300 nM.

As to `O=C(NCc1cc(C(F)(F)F)cc(C(F)(F)F)c1)c1cc(Cl)ccc1O`, the inhibition in test [5] was determined as 111%. Further, the IC50 in test [1] came to 1530 nM.

Take `O=C(Nc1cc(C(F)(F)F)cc(C(F)(F)F)c1)c1ccncc1O`: the inhibition in test [5] came out at 60%. Further, the IC50 in test [1] was 5250 nM.

With `O=C(Nc1cc(C(F)(F)F)cc(C(F)(F)F)c1)c1cccc(O)c1`, the inhibition in test [5] turned out to be 100%. Besides, in test [1], the IC50 was 4910 nM.

In the case of `Nc1ccccc1C(=O)Nc1cc(C(F)(F)F)cc(C(F)(F)F)c1`, in test [5], the inhibition worked out at 67%. For the same compound, in test [1], the IC50 is 9930 nM.

As for `O=C(Nc1ccc([N+](=O)[O-])cc1)c1cc(Cl)ccc1O`, the inhibition in test [5] came out at 43%.

Turning to `COc1cc(NC(=O)c2cc(Cl)ccc2O)cc(OC)c1`, the inhibition in test [5] came to 80%. Moreover, the IC50 in test [1] came out at 915 nM.

In the case of `O=C(Nc1cc(C(F)(F)F)cc(C(F)(F)F)c1)c1ccccc1Cl`, the inhibition in test [5] was 100%. The IC50 in test [1] was determined as 539000 nM.

Take `Oc1ccc(Cl)cc1CNc1cc(C(F)(F)F)cc(C(F)(F)F)c1`: the inhibition in test [5] came out at 122%. Also, in test [1], the IC50 was determined as 3820 nM.

Turning to `Cc1ccc(O)c(C(=O)Nc2cc(C(F)(F)F)cc(C(F)(F)F)c2)c1`, in test [5], the inhibition turned out to be 91%. Moreover, in test [1], the IC50 is 236 nM.

For `CN1CCN(C(=O)Nc2cc(C(F)(F)F)cc(C(F)(F)F)c2)C1=O`, the inhibition in test [5] came to 0%. The IC50 in test [1] is above 10000 nM.

Regarding `COc1ccc(O)c(C(=O)Nc2cc(C(F)(F)F)cc(C(F)(F)F)c2)c1`, the inhibition in test [5] was found to be 91%. Moreover, the IC50 in test [1] was determined as 755 nM.

For `O=C(Nc1cc(C(F)(F)F)cc(C(F)(F)F)c1)c1cc([N+](=O)[O-])ccc1O`, the inhibition in test [5] is 99%. Besides, the IC50 in test [1] amounted to 2530 nM.

Regarding `O=C(Nc1cccc([N+](=O)[O-])c1)c1cc(Cl)ccc1O`, the inhibition in test [5] stood at 65%. Moreover, the IC50 in test [1] is 172 nM.

As for `O=C(Nc1ccc(Cl)cc1)c1cc(Cl)ccc1O`, the inhibition in test [5] stood at 55%. Further, the IC50 in test [1] is 199 nM.

For the compound `O=C(Nc1cc(C(F)(F)F)cc(C(F)(F)F)c1)c1cccc([N+](=O)[O-])c1O`, in test [5], the inhibition came out at 112%. In test [1], the IC50 worked out at 869 nM.

Take `O=C(Nc1ccc(F)cc1)c1cc(Cl)ccc1O`: the inhibition in test [5] amounted to 93%. Moreover, the 50% inhibitory concentration (IC50) in test [1] turned out to be 907 nM.

For `O=C(Nc1cc(C(F)(F)F)cc(C(F)(F)F)c1)c1cccc(Cl)c1`, in test [5], the inhibition is 82%. The IC50 in test [1] amounted to 139000 nM.

With `CC(C)(C)c1cccc(NC(=O)c2cc(Cl)ccc2O)c1`, the inhibition in test [5] stood at 100%. For the same compound, the IC50 in test [1] turned out to be 567 nM.

Consider `O=C(Nc1cc(C(F)(F)F)cc(C(F)(F)F)c1)c1ccccc1CO`, for which, in test [5], the inhibition came out at 37%. Moreover, in test [1], the IC50 was above 10000 nM.

Consider `N#Cc1ccc(NC(=O)c2cc(Cl)ccc2O)cc1`, for which the inhibition in test [5] stood at 38%. For the same compound, the half-maximal inhibitory concentration (IC50) in test [1] was above 10000 nM.

Regarding `O=C(Nc1cc(C(F)(F)F)cc(C(F)(F)F)c1)c1ccccc1[N+](=O)[O-]`, the inhibition in test [5] was found to be 61%. In addition, the IC50 in test [1] is 8600 nM.

With `O=C(Nc1cc(C(F)(F)F)cc(C(F)(F)F)c1)c1cccc(C(F)(F)F)c1`, the inhibition in test [5] came out at 63%. Moreover, the IC50 in test [1] stood at 7180 nM.

Take `O=C(Nc1ccccc1C(F)(F)F)c1cc(Cl)ccc1O`: the inhibition in test [5] came to 28%. Besides, the IC50 in test [1] was above 10000 nM.

For the compound `NS(=O)(=O)c1cccc(NC(=O)c2ccccc2O)c1`, in test [5], the inhibition is 21%. The IC50 in test [1] was above 10000 nM.

`C#Cc1cccc(NC(=O)c2cc(Cl)ccc2O)c1`: the inhibition in test [5] was determined as 60%. Moreover, the IC50 in test [1] was found to be 1340 nM.

Turning to `O=C(Nc1cc(C(F)(F)F)cc(C(F)(F)F)c1)c1c(O)cccc1O`, the inhibition in test [5] worked out at 75%. Moreover, the IC50 in test [1] turned out to be 8000 nM.

Consider `Cc1cccc(C(=O)Nc2cc(C(F)(F)F)cc(C(F)(F)F)c2)c1O`, for which the inhibition in test [5] is 102%. Besides, the IC50 in test [1] was found to be 655 nM.

Take `O=C(Nc1cccc(S(=O)(=O)C(F)(F)F)c1)c1cc(Cl)ccc1O`: in test [5], the inhibition is 83%. For the same compound, in test [1], the IC50 stood at 335 nM.

As for `O=C(Nc1ccc2ncccc2c1)c1ccccc1O`, in test [5], the inhibition amounted to 28%. Moreover, the IC50 in test [1] was above 10000 nM.
